Tests used:
Test in all cases: cells
DMS114 = conditions: Homo sapiens, DMS-114, 6 h, read-out: AZD5991 6h EC50
Summary of the method: (§1)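 Cells were seeded at 3000 cells/well in their respective growth media and treated with compound. Caspase-3/7 activation was read by Caspase-Glo 3/7 luminescence and viability by CellTiter-Glo; EC50 and GI50 came from dose–response curves. Caspase activation is expressed relative to a cell-kill control set at 100%.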

AMO1 = conditions: Homo sapiens, AMO1, 6 h, read-out: AZD5991 6h EC50
Summary of the method: as §1

Z-138 = conditions: Homo sapiens, Z-138, 6 h, read-out: AZD5991 6h EC50
Summary of the method: as §1

JJN3 = conditions: Homo sapiens, JJN-3, 6 h, read-out: AZD5991 6h EC50
Summary of the method: as §1

BT20 = conditions: Homo sapiens, BT-20, 6 h, read-out: AZD5991 6h EC50
Summary of the method: as §1

GRANTA519 = conditions: Homo sapiens, Granta-519, 6 h, read-out: AZD5991 6h EC50
Summary of the method: as §1

LK2 = conditions: Homo sapiens, LK-2, 6 h, read-out: AZD5991 6h EC50
Summary of the method: as §1

Sudhl6 = conditions: Homo sapiens, SU-DHL-6, 6 h, read-out: AZD5991 6h EC50
Summary of the method: as §1

Namalwa = conditions: 6 h, read-out: AZD5991 6h EC50
Summary of the method: as §1

MALME3M = conditions: Homo sapiens, Malme-3M, 6 h, read-out: AZD5991 6h EC50
Summary of the method: as §1

Karpas620 = conditions: Karpas-620, 6 h, read-out: AZD5991 6h EC50
Summary of the method: as §1

H146 = conditions: Homo sapiens, NCI-H146, 6 h, read-out: AZD5991 6h EC50
Summary of the method: as §1

ZR751 = conditions: Homo sapiens, ZR-75-1, 6 h, read-out: AZD5991 6h EC50
Summary of the method: as §1

OPM2 = conditions: Homo sapiens, OPM-2, 6 h, read-out: AZD5991 6h EC50
Summary of the method: as §1

ML2 = conditions: Homo sapiens, ML-2, 6 h, read-out: AZD5991 6h EC50
Summary of the method: as §1

RCK8 = conditions: Homo sapiens, RCK8, 6 h, read-out: AZD5991 6h EC50
Summary of the method: as §1

OV90 = conditions: Homo sapiens, OV-90, 6 h, read-out: AZD5991 6h EC50
Summary of the method: as §1

PL21 = conditions: PL-21, 6 h, read-out: AZD5991 6h EC50
Summary of the method: as §1

H345 = conditions: Homo sapiens, NCI-H345, 6 h, read-out: AZD5991 6h EC50
Summary of the method: as §1

TMD8 = conditions: Homo sapiens, TMD8, 6 h, read-out: AZD5991 6h EC50
Summary of the method: as §1

U2932 = conditions: Homo sapiens, U2932, 6 h, read-out: AZD5991 6h EC50
Summary of the method: as §1

GIST T1 = conditions: Homo sapiens, GISTT1, 6 h, read-out: AZD5991 6h EC50
Summary of the method: as §1

RI1 = conditions: Ri-1, 6 h, read-out: AZD5991 6h EC50
Summary of the method: as §1

A253 = conditions: Homo sapiens, A253, 6 h, read-out: AZD5991 6h EC50
Summary of the method: as §1

RPMI8226 = conditions: Homo sapiens, RPMI-8226, 6 h, read-out: AZD5991 6h EC50
Summary of the method: as §1

MM1S = conditions: Homo sapiens, MM1.S, 6 h, read-out: AZD5991 6h EC50
Summary of the method: as §1

WSUDLCL2 = conditions: Homo sapiens, WSUDLCL2, 6 h, read-out: AZD5991 6h EC50
Summary of the method: as §1

SKLU1 = conditions: Homo sapiens, SK-LU-1, 6 h, read-out: AZD5991 6h EC50
Summary of the method: as §1

GIST 430/654 = conditions: GIST-430/654, 6 h, read-out: AZD5991 6h EC50
Summary of the method: as §1

NCI-H929 = conditions: Homo sapiens, NCI-H929, 6 h, read-out: AZD5991 6h EC50
Summary of the method: as §1

LnCAP = conditions: Homo sapiens, 6 h, read-out: AZD5991 6h EC50
Summary of the method: as §1

H2286 = conditions: Homo sapiens, NCI-H2286, 6 h, read-out: AZD5991 6h EC50
Summary of the method: as §1

OCILY1 = conditions: Homo sapiens, OCI-Ly1, 6 h, read-out: AZD5991 6h EC50
Summary of the method: as §1

Kasumi1 = conditions: Homo sapiens, Kasumi 1, 6 h, read-out: AZD5991 6h EC50
Summary of the method: as §1

For `Cc1c2c(nn1C)CSCc1cc(n(C)n1)CSc1cc(c3ccccc3c1)OCCCc1c(C(=O)O)n(C)c3c-2c(Cl)ccc13` (atropisomer, axis not shown; (Ra)) [(Ra)-7], the EC50 (DMS114) was 290 nM, the EC50 (AMO1) was 90 nM and the EC50 (Z-138) was > 30000 nM. For the same compound, the EC50 (JJN3) was 223 nM, the EC50 (BT20) was > 30000 nM and the EC50 (GRANTA519) was > 30000 nM. The EC50 (LK2) was > 30000 nM, the EC50 (Sudhl6) was 56 nM and the EC50 (Namalwa) was 67 nM. For the same compound, the EC50 (MALME3M) was > 30000 nM, the EC50 (Karpas620) was 122 nM and the EC50 (H146) was > 30000 nM. For the same compound, the EC50 (ZR751) was > 30000 nM, the EC50 (OPM2) was 59 nM and the EC50 (ML2) was 83 nM. For the same compound, the EC50 (RCK8) was > 30000 nM, the EC50 (OV90) was > 30000 nM and the EC50 (PL21) was 409 nM. The EC50 (H345) was > 30000 nM, the EC50 (TMD8) was > 30000 nM and the EC50 (U2932) was 24200 nM. The EC50 (GIST T1) was > 30000 nM, the EC50 (RI1) was > 30000 nM and the EC50 (A253) was > 30000 nM. For the same compound, the EC50 (RPMI8226) was 76 nM, the EC50 (MM1S) was 3600 nM and the EC50 (WSUDLCL2) was 159 nM. The EC50 (SKLU1) was > 30000 nM, the EC50 (GIST 430/654) was 18600 nM and the EC50 (NCI-H929) was 60 nM. For the same compound, the EC50 (LnCAP) was > 30000 nM, the EC50 (H2286) was > 30000 nM and the EC50 (OCILY1) was 547 nM. For the same compound, the EC50 (Kasumi1) was 297 nM.

Reference: publication PMC6297231 (Nature Communications, 2018)
